Reference: patent US6503912B1, “Substituted guanidine derivatives” (Bayer Aktiengesellschaft, priority 1998, dated 2003)

Columns and labels:
[1] = system: larvae of the army worm (Spodoptera frugiperda); assay: Spodoptera Frugiperda Test; type: in vivo; conditions: active compound concentration 0.1%; dipped cabbage leaves; after 7 days
Method: Spodoptera Frugiperda Test
(§1) Solvent: 7 parts by weight of dimethylformamide
(§2) Emulsifier: 1 part by weight of alkylaryl polyglycol ether
To produce a suitable preparation of active compound, 1 part by weight of active compound is mixed with the stated amounts of solvent and emulsifier, and the concentrate is diluted with water to the desired concentration.
Cabbage leaves (Brassica oleracea) are treated by being dipped into the preparation of active compound of the desired concentration and are populated with larvae of the army worm (Spodoptera frugiperda) whilst the leaves are still moist.
After the desired period of time, the kill in % is determined. 100% means that all larvae have been killed; 0% means that none of the larvae has been killed.

[2] = system: larvae of the green rice leaf-hopper (Nephotettix cincticeps); assay: Nephotettix Test; type: in vivo; conditions: active compound concentration 0.1%; dipped rice seedlings; after 6 days
Method: as §1, §2
(§3) To produce a suitable preparation of active compound, 1 part by weight of active compound is mixed with the stated amount of solvent, and the stated amount of emulsifier, and the concentrate is diluted with water to the desired concentration.
Rice seedlings (Oryza sativa) are treated by being dipped into the preparation of active compound of the desired concentration and are populated with larvae of the green rice leaf-hopper (Nephotettix cincticeps) while the seedlings are still moist.
After the desired period of time, the kill in % is determined. 100% means that all leaf-hoppers have been killed; 0% means that none of the leaf-hoppers has been killed.

[3] = system: larva (L2-L3) of the army worm (Spodoptera frugiperda); assay: Spodoptera Frugiperda Test/artificial Feed; type: in vivo; conditions: active compound concentration 0.05%; artificial feed; after 7 days
Method: Spodoptera Frugiperda Test/arfificial Feed
(§4) Solvent: 100 parts by weight of acetone
(§5) 1900 parts by weight of methanol
(§6) To produce a suitable preparation of active compound, 1 part by weight of active compound is mixed with the stated amount of solvent, and the concentrate is diluted with methanol to the desired concentration.
A stated amount of the preparation of active compound of the desired concentration is pipetted onto a standardized quantity of artificial feed. After the methanol has evaporated, in each case one larva (L2-L3) of the army worm (Spodoptera frugiperda) is placed onto the feed, in 3 repetitions.
After the desired period of time, the kill in % is determined. 100% means that all animals have been killed; 0% means that none of the animals has been killed.

[4] = system: Aphis fabae; assay: Critical Concentration Test/root-systemic Action; type: in vivo; conditions: 20 ppm in soil; broad beans; leaves populated after 7 days, evaluation after a further 6 days
Method: Critical Concentration Test/root-systemic Action
Solvent: 4 parts by weight of acetone
as §2
To produce a suitable preparation of active compound, 1 part by weight of active compound is mixed with the stated amount of solvent, the stated amount of emulsifier is added and the concentrate is diluted with water to the desired concentration.
The preparation of active compound is mixed intimately with soil. The concentration of the active compound in the preparation is virtually immaterial, only the amount by weight of active compound per volume unit of soil, which is stated in ppm (=mg/l), matters. The treated soil is filled into pots which are planted with pregerminated broad beans. Thus, the active compound can be taken up from the soil by the plant roots and transported into the leaves.
After a further 6 days, evaluation is carried out by counting or estimating the dead animals. The root-systemic action of the active compound is deduced from the number of animals killed. It is 100% when all test animals have been killed and 0% when the number of live test insects is identical to that of the untreated control.

[5] = system: mustard beetle larvae (Phaedon cochleariae); assay: Phaedon larvae Test; type: in vivo; conditions: active compound concentration 0.1%; dipped cabbage leaves; after 7 days
Method: as §1, §2
To produce a suitable preparation of active compound, 1 part by weight of active compound is mixed with the stated amount of solvent and the stated amount of emulsifier, and the concentrate is diluted with water to the desired concentration.
Cabbage leaves (Brassica oleracea) are treated by being dipped into the preparation of active compound of the desired concentration and are populated with mustard beetle larvae (Phaedon cochleariae) whilst the leaves are still moist.
After the desired period of time, the kill in % is determined. 100% means that all beetle larvae have been killed; 0% means that none of the beetle larvae has been killed.

[6] = system: Mosquito larvae (Aedes aegypti); assay: Aedes Test; type: in vivo; conditions: active compound concentration 0.0016%; after 4 hours
Method: Solvent: 1000 parts by weight of methanol
To produce a suitable preparation of active compound, 1 part by weight of active compound is mixed with the stated amount of solvent, and the concentrate is diluted with water to the desired concentrations.
Mosquito larvae (Aedes aegypti) are placed into the preparation of active compound of the desired concentration.
After the desired period of time, the effect on the larvae is determined.

[7] = system: black bean aphid (Aphis fabae); assay: Aphis Test (Systemic Action); type: in vivo; conditions: active compound concentration 0.01%, watering of Vicia faba, after 4 days
Method: Aphis Test (Systemic Action)
as §1, §2, §3
Bean plants (Vicia faba) which are heavily infested by the black bean aphid (Aphis fabae) are watered with in each case 20 ml of the preparation of active compound of the desired concentration so that the preparation of active compound penetrates into the soil without wetting the shoot. The active compound is taken up by the roots and passed on to the shoot.
(§7) After the desired period of time, the kill in % is determined. 100% means that all aphids have been killed; 0% means that none of the aphids has been killed.

[8] = system: eggs of the onion fly (Hylemyia antiqua); assay: Hylemyia Test; type: in vivo; conditions: active compound concentration 0.05%; artificial feed; after 7 days
Method: as §4, §5, §6
A stated amount of the preparation of active compound of the desired concentration is pipetted onto a standardized quantity of artificial feed. After the methanol has evaporated, about 20 eggs of the onion fly (Hylemyia antiqua) are placed on the feed.
After the desired period of time, the kill of the eggs or larvae in % is determined. 100% means that all animals have been killed; 0% means that none of the animals has been killed.

[9] = not given; remark: listed apart in the source
[10] = system: Lucilia cuprina larvae; assay: Blowfly Larvae Test/development-inhibitory Action; type: in vivo; conditions: active compound concentration 100 ppm; flies hatched after 1.5 times the development period of untreated control
Method: Blowfly Larvae Test/development-inhibitory Action
Test animals: Lucilia cuprina larvae
Solvent: Dimethyl sulfoxide
20 mg of active compound are dissolved in 1 ml of dimethyl sulfoxide, more dilute concentrations are prepared by dilution with Dest.H2O.
About 20 Lucilia cuprina larvae are introduced into a test tube which contains about 1 cm^3 of horse meat and 0.5 ml of the preparation of active compound to be tested. After 24 hours and 48 hours, the effectiveness of the preparation of active compound is determined. The test tubes are transferred into beakers whose bottom is covered with sand. After a further 2 days, the test tubes are removed and the pupae are counted.
The effect of the preparation of active compound is assessed by the number of flies which have hatched after 1.5 times the development period of an untreated control. 100% means that no flies have hatched; 0% means that all flies have hatched normally.

[11] = system: peach aphid (Myzus persicae); assay: Myzus Test; type: in vivo; conditions: active compound concentration 0.1%; dipped cabbage leaves; after 6 days
Method: as §1, §2, §3
Cabbage leaves (Brassica oleracea) which are heavily infested by the peach aphid (Myzus persicae) are treated by being dipped into the preparation of active compound of the desired concentration.
as §7

Compound | kill [1] | kill [2] | kill [5] | logP (pH = 2.3) [9] | kill [11] | further results
CC(C)OCN1CCN(Cc2ccc(Cl)nc2)C1=NC#N | – | – | – | – | – | melting point: 85 to 87 °C
O=[N+]([O-])/N=c1\n(COCCBr)ccn1Cc1ccc(Cl)nc1 | – | – | – | – | – | melting point: 90 to 92 °C
CCCOCN1CCN(Cc2cnc(Cl)s2)C1=N[N+](=O)[O-] [Example 2, 1-(2-chloro-thiazol-5-yl-methyl)-2-nitroimino-3-n-propoxymethyl-imidazolidine] | 100% | – | – | – | – | –
CCOCN1CCN(Cc2ccc(Cl)nc2)C1=N[N+](=O)[O-] [Example 4] | – | 100% | 100% | – | – | kill [3]: 100%; kill (root-systemic action) [4]: 100%; kill [6]: 100%; kill [7]: 100%; kill of the eggs or larvae [8]: 100%
CCCCCCCCOCN1CCN(Cc2ccc(Cl)nc2)C1=N[N+](=O)[O-] [Example 5] | – | – | – | 3.55 | – | kill (root-systemic action) [4]: 100%; kill [6]: 100%; kill [7]: 95%
CCOCn1ccn(Cc2ccc(Cl)nc2)c1=N[N+](=O)[O-] [Example 6] | – | – | – | 1.09 | – | –
CCCCCCCCOCn1ccn(Cc2ccc(Cl)nc2)c1=N[N+](=O)[O-] [Example 7] | – | – | – | – | – | kill [6]: 100%
COCn1ccn(Cc2ccc(Cl)nc2)c1=N[N+](=O)[O-] [Example 9] | – | – | – | 0.78 | – | development-inhibitory effect [10]: 100%; kill [7]: 100%
CCCOCN1CCN(Cc2ccc(Cl)nc2)C1=N[N+](=O)[O-] [Example 10] | 100% | 100% | 100% | 1.64 | 100% | development-inhibitory effect [10]: 100%
CCCOCn1ccn(Cc2ccc(Cl)nc2)c1=N[N+](=O)[O-] [Example 11] | – | – | – | – | 100% | development-inhibitory effect [10]: 100%
CC(C)OCN1CCN(Cc2ccc(Cl)nc2)C1=N[N+](=O)[O-] [Example 12] | 100% | 100% | 100% | – | 100% | development-inhibitory effect [10]: 100%
CC(C)COCN1CCN(Cc2ccc(Cl)nc2)C1=N[N+](=O)[O-] [Example 13] | 100% | 100% | – | 2.00 | 100% | development-inhibitory effect [10]: 100%
CC(C)OCn1ccn(Cc2ccc(Cl)nc2)c1=N[N+](=O)[O-] [Example 14] | – | 100% | – | – | 100% | –
CC(C)COCn1ccn(Cc2ccc(Cl)nc2)c1=N[N+](=O)[O-] [Example 15] | – | 100% | – | – | 100% | –
COCN1CCN(Cc2cnc(Cl)s2)C1=N[N+](=O)[O-] [Example 16] | – | – | – | 1.14 | 100% | –
CCOCN1CCN(Cc2cnc(Cl)s2)C1=N[N+](=O)[O-] [Example 17] | 100% | – | 100% | 1.40 | 100% | –
CC(C)OCN1CCN(Cc2cnc(Cl)s2)C1=N[N+](=O)[O-] [Example 18] | 100% | 100% | 100% | 1.65 | 100% | –
CC(C)COCN1CCN(Cc2cnc(Cl)s2)C1=N[N+](=O)[O-] [Example 19] | – | 100% | 100% | 2.12 | – | –

Compound | kill [1] | kill [2] | kill [5] | logP (pH = 2.3) [9] | kill [11] | further results
CC(C)(C)COCN1CCN(Cc2ccc(Cl)nc2)C1=N[N+](=O)[O-] [Example 20] | 100% | – | – | – | 100% | –
CCC(C)OCN1CCN(Cc2ccc(Cl)nc2)C1=N[N+](=O)[O-] (centres unmarked) [Example 21] | – | 100% | 100% | 1.86 | – | –
CCCCCOCN1CCN(Cc2ccc(Cl)nc2)C1=N[N+](=O)[O-] [Example 22] | – | – | – | 2.35 | – | –
CCCCCCOCN1CCN(Cc2ccc(Cl)nc2)C1=N[N+](=O)[O-] [Example 23] | – | – | – | 2.73 | – | –
COCCOCN1CCN(Cc2ccc(Cl)nc2)C1=N[N+](=O)[O-] [Example 24] | – | 100% | – | 1.16 | – | –
CC(C)(C)C(=O)OCN1CCN(Cc2ccc(Cl)nc2)C1=N[N+](=O)[O-] [Example 25] | 100% | 100% | 100% | – | 100% | –
COCN1CCN(Cc2ccc(Cl)nc2)C1=NC#N [Example 29] | – | – | – | 1.32 | – | –
COCCOCN1CCN(Cc2ccc(Cl)nc2)C1=NC#N [Example 31] | – | – | – | 1.40 | – | –
CCCOCN1CCN(Cc2ccc(Cl)nc2)C1=NC#N [Example 32] | – | – | – | 1.89 | – | –
CC(=O)OCN1CCN(Cc2ccc(Cl)nc2)C1=N[N+](=O)[O-] [Example 33] | 100% | 100% | 100% | – | – | –
CCC(=O)OCN1CCN(Cc2ccc(Cl)nc2)C1=N[N+](=O)[O-] [Example 35] | 100% | – | 100% | 1.50 | – | –
CC(C)C(=O)OCN1CCN(Cc2ccc(Cl)nc2)C1=N[N+](=O)[O-] [Example 36] | 100% | 100% | 100% | – | 100% | –
CCCCOCN1CCN(Cc2ccc(Cl)nc2)C1=N[N+](=O)[O-] [Example 40] | – | – | – | 1.98 | – | –
CCCCOCn1ccn(Cc2ccc(Cl)nc2)c1=N[N+](=O)[O-] [Example 41] | – | – | – | 1.72 | – | –
CCN(CC)CCOCN1CCN(Cc2ccc(Cl)nc2)C1=N[N+](=O)[O-] [Example 43] | – | – | – | 0.70 | – | –
O=[N+]([O-])N=C1N(COCCBr)CCN1Cc1ccc(Cl)nc1 [Example 53] | – | – | – | 1.64 | – | –
CC(C)OCN1CCCN(Cc2ccc(Cl)nc2)C1=N[N+](=O)[O-] [Example 56] | – | – | – | 1.34 | – | –
